Experiments:
Assay type in all cases: in vivo
[1] = tested on: parent elite stiff stalk inbred corn; experiment: Preemergence herbicide application in greenhouse: fresh shoot weight and visual injury; details: for pest or weed control at 200 g/ha: Zea mays, pre-emergence, 672 h, read-out: % Visual Injury; for Fresh Weight: fresh shoots weighed 4 weeks after treatment, untreated 36.7 g
[2] = tested on: Heterozygous GAT-HRA corn; experiment: Postemergence herbicide application in greenhouse: fresh shoot weight and visual injury; details: for pest or weed control at 200 g/ha: Zea mays, post-emergence, read-out: % Visual Injury; for Fresh Weight: weighed 2 weeks after treatment, untreated 98.8 g
[3] = tested on: parent elite stiff stalk inbred corn; experiment: as above; details: for pest or weed control at 200 g/ha: Zea mays, post-emergence, read-out: % Visual Injury; for Fresh Weight: weighed 2 weeks after treatment, untreated 76.4 g
[4] = tested on: Heterozygous GAT-HRA corn; experiment: Preemergence herbicide application in greenhouse: fresh shoot weight and visual injury; details: for pest or weed control at 200 g/ha: Zea mays, pre-emergence, 672 h, read-out: % Visual Injury; for Fresh Weight: fresh shoots weighed 4 weeks after treatment, untreated 47.0 g
[5] = preemergence, 200 g/ha, 0% no injury, 100% plant death, mean of four replications
[6] = preemergence, 200 g/ha, mean of four replications
[7] = postemergence, 200 g/ha (glyphosate 3472 g ae/ha, glufosinate ammonium 1870 g/ha), 0% no injury, 100% plant death, mean of four replications
[8] = postemergence, 200 g/ha (glyphosate 3472 g ae/ha, glufosinate ammonium 1870 g/ha), mean of four replications

| Compound | pest or weed control at 200 g/ha [1, 5] [%] | Fresh Weight [1, 6] [g] | pest or weed control at 200 g/ha [2, 7] [%] | Fresh Weight [2, 8] [g] | pest or weed control at 200 g/ha [3, 7] [%] | Fresh Weight [3, 8] [g] | pest or weed control at 200 g/ha [4, 5] [%] | Fresh Weight [4, 6] [g] | % Visual Injury [1, 5] [%] | % Visual Injury [2, 7] [%] | % Visual Injury [3, 7] [%] | % Visual Injury [4, 5] [%] | pest or weed control at 200 g/ha [1] [%] | pest or weed control at 200 g/ha ([2]; […]) [%] | pest or weed control at 200 g/ha ([3]; […]) [%] | pest or weed control at 200 g/ha [4] [%] |
| --- | --- | --- | --- | --- | --- | --- | --- | --- | --- | --- | --- | --- | --- | --- | --- | --- |
| COc1cc(OC)nc(NC(=O)NS(=O)(=O)N(C)S(C)(=O)=O)n1 [Amidosulfuron] | 97 | 14.2 | 8 | 107.4 | 71 | 32.0 | 25 | 47.7 |  |  |  |  |  |  |  |  |
| COc1cc(OC)nc(NC(=O)NS(=O)(=O)c2c(-c3nnn(C)n3)cnn2C)n1 [Azimsulfuron] | 100 | 0.0 | 20 | 87.9 | 100 | 1.5 | 40 | 49.1 |  |  |  |  |  |  |  |  |
| COC(=O)c1ccccc1CS(=O)(=O)NC(=O)Nc1nc(OC)cc(OC)n1 [Bensulfuron-methyl] | 23 | 28.4 | 14 | 103.3 | 93 | 9.0 | 10 | 39.9 |  |  |  |  |  |  |  |  |
| CCOc1nc(F)cc2nc(S(=O)(=O)Nc3c(Cl)cccc3C(=O)OC)nn12 [Chloransulam-methyl] |  | 5.5 |  | 104.4 |  | 6.8 |  | 44.9 | 3 | 3 | 96 | 3 |  |  |  |  |
| COc1nc(C)nc(NC(=O)NS(=O)(=O)c2ccccc2Cl)n1 [Chlorsulfuron] | 100 | 0.0 | 13 | 105.2 | 100 | 1.7 | 33 | 48.4 |  |  |  |  |  |  |  |  |
| CCOc1nc(NC)nc(NC(=O)NS(=O)(=O)c2ccccc2C(=O)OC)n1 [Ethametsulfuron-methyl] |  | 1.6 |  | 98.0 |  | 5.6 |  | 50.1 |  |  |  |  | 100 | 6 | 96 | 88 |
| CCOc1ccccc1OS(=O)(=O)NC(=O)Nc1nc(OC)cc(OC)n1 [Ethoxysulfuron] | 63 | 28.1 | 15 | 79.3 | 88 | 24.3 | 25 | 40.0 |  |  |  |  |  |  |  |  |
| COc1nn(C(=O)NS(=O)(=O)c2ccccc2OC(F)(F)F)c(=O)n1C [Flucarbazone Na^+, Flucarbazone] |  | 0.0 |  | 86.0 |  | 3.1 |  | 48.8 | 100 | 14 | 100 | 40 |  |  |  |  |
| Cc1ccn2nc(S(=O)(=O)Nc3c(F)cccc3F)nc2n1 [Flumetsulam] | 13 | 24.6 | 3 | 103.8 | 85 | 12.8 | 13 | 39.1 |  |  |  |  |  |  |  |  |
| COC(=O)c1ccc(C(F)(F)F)nc1S(=O)(=O)NC(=O)Nc1nc(OC)cc(OC)n1 [Flupyrsulfuron-methyl Na^+, Flupyrsulfuron-methyl] |  | 23.6 |  | 95.5 |  | 5.2 |  | 45.8 | 87 | 4 | 95 | 90 |  |  |  |  |
| COc1cc(OC)nc(NC(=O)NS(=O)(=O)c2cc(NC=O)ccc2C(=O)N(C)C)n1 [Foramsulfuron] | 5 | 30.6 | 8 | 80.6 | 28 | 62.5 | 7 | 39.1 |  |  |  |  |  |  |  |  |
| CP(=O)(O)CCC(N)C(=O)O (centres unmarked) [Glufosinate ammonium] |  |  |  | 112.3 |  | 2.4 |  |  |  |  |  |  |  | 1 | 99 |  |
| COC(=O)c1c(Cl)nn(C)c1S(=O)(=O)NC(=O)Nc1nc(OC)cc(OC)n1 [Halosulfuron-methyl] |  | 28.9 |  | 94.5 |  | 58.1 |  | 40.1 |  |  |  |  | 30 | 8 | 14 | 15 |
| COCc1cnc(C2=NC(C)(C(C)C)C(=O)N2)c(C(=O)O)c1 (centres unmarked) [Imazamox] | 99 | 0.8 | 4 | 90.9 | 100 | 2.2 | 13 | 47.5 |  |  |  |  |  |  |  |  |
| CC(C)C1(C)N=C(c2nc3ccccc3cc2C(=O)O)NC1=O (centres unmarked) [Imazaquin] |  | 1.5 |  | 113.3 |  | 4.4 |  | 45.4 |  |  |  |  | 99 | 2 | 100 | 28 |
| CCc1cnc(C2=NC(C)(C(C)C)C(=O)N2)c(C(=O)O)c1 (centres unmarked) [Imazethapyr] | 69 | 24.4 | 9 | 93.4 | 97 | 6.4 | 20 | 50.0 |  |  |  |  |  |  |  |  |
| COC(=O)c1ccc(I)cc1S(=O)(=O)NC(=O)Nc1nc(C)nc(OC)n1 [Iodosulfuron-methyl Na^+, Iodosulfuron-methyl] |  | 24.4 |  | 95.0 |  | 3.5 |  | 52.5 | 92 | 1 | 100 | 5 |  |  |  |  |
| COc1cc(OC)nc(NC(=O)NS(=O)(=O)c2ncccc2C(=O)N(C)C)n1 [Nicosulfuron] | 43 | 33.6 | 0 | 94.7 | 24 | 62.7 | 0 | 50.3 |  |  |  |  |  |  |  |  |
| COC(=O)c1ccccc1S(=O)(=O)NC(=O)Nc1nc(OC(F)F)cc(OC(F)F)n1 [Primisulfuron-methyl] |  | 19.5 |  | 101.0 |  | 16.6 |  | 37.9 |  |  |  |  | 68 | 5 | 75 | 7 |
| CCCOc1nn(C(=O)NS(=O)(=O)c2ccccc2C(=O)OC)c(=O)n1C [Propoxycarbazone Na^+, Propoxycarbazone] |  | 0.6 |  | 101.2 |  | 1.9 |  | 46.7 | 100 | 9 | 100 | 100 |  |  |  |  |
| COc1nc(C)nc(NC(=O)NS(=O)(=O)c2ccccc2CCC(F)(F)F)n1 [Prosulfuron] | 68 | 20.9 | 29 | 91.3 | 25 | 53.6 | 9 | 43.3 |  |  |  |  |  |  |  |  |
| CO/N=C(/C)c1cccc(Oc2nc(OC)cc(OC)n2)c1C(=O)OC [Pyriminobac-methyl] |  | 30.4 |  | 95.2 |  | 7.6 |  | 39.9 |  |  |  |  | 83 | 4 | 93 | 20 |
| COc1cc(OC)nc(Sc2cccc(Cl)c2C(=O)[O-])n1.[Na+] [Pyrithiobac Na^+, Pyrithiobac] |  | 0.0 |  | 87.9 |  | 2.8 |  | 48.6 | 100 | 9 | 100 | 0 |  |  |  |  |
| COC(=O)c1ccccc1S(=O)(=O)NC(=O)Nc1nc(C)cc(C)n1 [Sulfometuron-methyl] |  | 0.0 |  | 104.5 |  | 2.0 |  | 47.3 |  |  |  |  | 100 | 2 | 100 | 6 |

From patent US7803992B2, “Methods and compositions for expressing an herbicide-tolerant polynucleotide” (Pioneer Hi-Bred International, Inc., priority 2005, dated 2010)
